Here are results for 15 compounds from ChEMBL document CHEMBL1201862, “PubChem BioAssay data set” (2004).

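Five concentrations, 48 hours, 96-well plates. At the GI50, growth is halved.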 Active and inactive are the calls of the source. Cut-off read from the data, not from the text of the source: active = GI50 up to about 1.1 µM and inactive = higher. Where a SMILES comes first, the peptide text is derived from it. [ ]: non-standard residue; d: D form. The star is where a group is joined. NMeF = CN[CH](Cc1ccccc1)C(=O)O; NMeV = CN[CH](C(=O)O)C(C)C; Boc = CC(C)(C)OC(=O)*; OBn = c1ccc(CO*)cc1 Bounds are passed on as bounds.

Some test systems named below: HCC 2998; SR; HCT-15; U-251; HOP-92; A498; K562; SF-539; SNB-75; HL-60; OVCAR-5; OVCAR-8; A549; NCI-H522; COLO 205; KM12.
What all share (test): growth of human tumour cells (NCI), 48 h

As for `COc1ccc(NC(=O)CC2SC(Nc3ccc(Cl)cc3C)=NC2=O)c([N+](=O)[O-])c1` (configuration not stated), the GI50 is > 100 µM (inactive) in the assay on HCC 2998; > 100 µM (inactive) in the assay with SR; above 100 µM in the assay on HCT-15; > 100 µM (inactive) in the assay on U-251; > 100 µM (inactive) in the assay on HOP-92; > 100 µM (inactive) with A498. For the same compound, the GI50 with K562, with SF-539, in the assay on SNB-75, with HL-60, with OVCAR-5 and in the assay with OVCAR-8 was > 100 µM (inactive) in each case. Besides, the GI50 in the assay with A549 and in the assay on NCI-H522 was > 100 µM (inactive) throughout.

Take `c1ccc(CNn2nnc3ccccc32)cc1`: the GI50 is > 100 µM (inactive) in the assay with HCC 2998; above 100 µM in the assay with HCT-15; > 100 µM (inactive) in the assay on HOP-92; > 100 µM (inactive) with COLO 205; > 100 µM (inactive) in the assay with K562; > 100 µM (inactive) in the assay on KM12. Further, the GI50 with SNB-75, in the assay on HL-60, with OVCAR-5, in the assay on OVCAR-8, in the assay on A549 and with NCI-H522 was > 100 µM (inactive) each time.

Turning to `O=c1c2c(c1=O)-c1ccccc1CN2`, the GI50 was > 100 µM (inactive) in the assay on HCC 2998; above 100 µM with HCT-15; > 100 µM (inactive) in the assay with U-251; > 100 µM (inactive) in the assay on HOP-92; > 100 µM (inactive) in the assay with A498; > 100 µM (inactive) with COLO 205. Moreover, the GI50 in the assay with K562, in the assay with KM12, in the assay with SF-539, in the assay on SNB-75, in the assay on HL-60 and with OVCAR-5 was > 100 µM (inactive) in each case. For the same compound, the GI50 in the assay on OVCAR-8, in the assay with A549 and in the assay with NCI-H522 was > 100 µM (inactive) each time.

As to `COc1ccc([C@@H]2CC(=O)NCCCNCCCCNCCCN2)cc1`, the GI50 is > 100 µM (inactive) with HCC 2998; > 100 µM (inactive) with SR; above 100 µM in the assay on HCT-15; > 100 µM (inactive) in the assay with U-251; > 100 µM (inactive) in the assay with HOP-92; > 100 µM (inactive) in the assay with A498. The GI50 in the assay with COLO 205, with K562, in the assay on KM12, in the assay on SF-539, in the assay on SNB-75 and in the assay with HL-60 was > 100 µM (inactive) in each case. In addition, the GI50 in the assay on OVCAR-5 was > 100 µM (inactive); in the assay with OVCAR-8 it was > 100 µM (inactive); in the assay on A549, > 100 µM (inactive); in the assay on NCI-H522 it was 30.8 µM (inactive).

Take `[O-][n+]1c2c([n+]([O-])c3ccccc31)CCCCCCCCCC2`: the GI50 is 63.4 µM (inactive) in the assay on SR; above 100 µM in the assay on HCT-15; > 100 µM (inactive) with U-251; 67.8 µM (inactive) in the assay with HOP-92; 69.7 µM (inactive) in the assay with K562; > 100 µM (inactive) in the assay on KM12. The GI50 in the assay with SF-539 was > 100 µM (inactive); with SNB-75, > 100 µM (inactive); in the assay on HL-60, 44.1 µM (inactive); in the assay with A549, > 100 µM (inactive); in the assay on NCI-H522 it was 77.1 µM (inactive).

Regarding `O=P1(Oc2ccccc2)C(c2ccccc2)C(c2ccccc2)=NN1c1ccccc1` (configuration not stated), the GI50 was 28.8 µM (inactive) in the assay on HCC 2998; 19.6 µM with HCT-15; 18 µM (inactive) in the assay with U-251; 29.6 µM (inactive) with A498; 18.9 µM (inactive) with COLO 205; 24.8 µM (inactive) in the assay with K562. Moreover, the GI50 in the assay on KM12 was 25.8 µM (inactive); with SF-539, 18.4 µM (inactive); with SNB-75, 30 µM (inactive); with HL-60, 15.8 µM (inactive); in the assay with OVCAR-5, 25.4 µM (inactive); with OVCAR-8, 37 µM (inactive). Further, the GI50 is 29.2 µM (inactive) with A549 and 19 µM (inactive) in the assay on NCI-H522.

Regarding `CC(CN(C)C)C(=O)c1ccccc1` (configuration not stated), the GI50 is 26.6 µM (inactive) in the assay on HCC 2998; 19.6 µM (inactive) with SR; 16.6 µM in the assay on HCT-15; > 100 µM (inactive) in the assay with U-251; 2.33 µM (inactive) in the assay with HOP-92; > 46.1 µM (inactive) with A498. In addition, the GI50 in the assay on COLO 205 was 31.6 µM (inactive); in the assay with K562, 5.02 µM (inactive); in the assay with KM12 it was 18.2 µM (inactive); in the assay with SF-539 it was 51.8 µM (inactive); with SNB-75 it was > 83.9 µM (inactive); in the assay with HL-60, 15.9 µM (inactive). Further, the GI50 is 32.3 µM (inactive) in the assay on OVCAR-5, 31.6 µM (inactive) in the assay with OVCAR-8, > 65.3 µM (inactive) with A549 and 2.04 µM (inactive) in the assay with NCI-H522.

`CC(=O)O[C@]12CCCC1C1(O)C(O)CCCC12` (some centres not stated): the GI50 was > 100 µM (inactive) in the assay with SR; above 100 µM with HCT-15; > 100 µM (inactive) in the assay on U-251; > 100 µM (inactive) in the assay on COLO 205; > 100 µM (inactive) with K562; > 100 µM (inactive) with KM12. Besides, the GI50 with SNB-75, with HL-60, with OVCAR-8, with A549 and with NCI-H522 was > 100 µM (inactive) throughout.

For `O=C1C2c3[nH]c4ccccc4c3C3CCCCC3C2C(=O)N1c1ccccc1` (configuration not stated), the GI50 with HCC 2998 is > 100 µM (inactive); in the assay on SR, > 100 µM (inactive); in the assay on HCT-15 it was above 100 µM; in the assay on U-251, > 100 µM (inactive); in the assay with A498, 36.2 µM (inactive); with COLO 205, > 100 µM (inactive). The GI50 was 63.8 µM (inactive) in the assay with K562; > 100 µM (inactive) with KM12; 34 µM (inactive) in the assay on SF-539; 11.3 µM (inactive) in the assay with SNB-75; > 100 µM (inactive) in the assay with HL-60; > 100 µM (inactive) in the assay on OVCAR-5. The GI50 in the assay with OVCAR-8 and in the assay with A549 was > 100 µM (inactive) throughout.

Consider `Clc1cc(Cl)c2n[se]nc2c1`, for which the GI50 with HCC 2998 is > 100 µM (inactive); in the assay with SR, > 100 µM (inactive); in the assay on HCT-15, above 100 µM; in the assay with U-251 it was > 100 µM (inactive); with A498 it was > 100 µM (inactive); in the assay on K562, > 100 µM (inactive). The GI50 was > 100 µM (inactive) in the assay with KM12; > 100 µM (inactive) with SF-539; 60.1 µM (inactive) in the assay on SNB-75; > 100 µM (inactive) in the assay on HL-60; > 100 µM (inactive) with OVCAR-5; > 100 µM (inactive) in the assay on OVCAR-8. Further, the GI50 in the assay on A549 and with NCI-H522 was > 100 µM (inactive) in each case.

With `Cc1nc(-c2cccnc2)sc1C(=O)/C=C/c1ccc(Cl)cc1Cl`, the GI50 in the assay with HCC 2998 was > 100 µM (inactive); with HCT-15, above 100 µM; in the assay on U-251 it was > 100 µM (inactive); in the assay with HOP-92, > 100 µM (inactive); with A498 it was > 100 µM (inactive); in the assay with COLO 205, > 100 µM (inactive). Also, the GI50 in the assay with K562 was 76.4 µM (inactive); with KM12 it was > 100 µM (inactive); in the assay on SF-539, > 100 µM (inactive); with SNB-75 it was 92.9 µM (inactive); in the assay on HL-60, 51.3 µM (inactive); in the assay with OVCAR-5, > 100 µM (inactive). Also, the values for the GI50 in the assay with OVCAR-8, with A549 and with NCI-H522 were > 100 µM (inactive), > 100 µM (inactive) and 94.6 µM (inactive), respectively.

On to `O=C(OC1CCC(=C2SCCCS2)[C@H]1C1SCCCS1)c1ccccc1` (some centres not stated), for which the GI50 with HCC 2998 was > 100 µM (inactive); with HCT-15, above 100 µM; in the assay on U-251 it was > 100 µM (inactive); with HOP-92 it was 16.9 µM (inactive); in the assay on A498 it was > 100 µM (inactive); in the assay with COLO 205, > 100 µM (inactive). For the same compound, the GI50 in the assay with K562 is 75 µM (inactive); in the assay on KM12, > 100 µM (inactive); with SF-539, > 100 µM (inactive); in the assay on HL-60 it was 52.7 µM (inactive); in the assay on OVCAR-8, > 100 µM (inactive); with A549 it was > 100 µM (inactive).

As to `COC1=C2C[C@H](O)C(C)C[C@@]2(OC)OC1=O` (some centres not stated), the GI50 is > 100 µM (inactive) in the assay with HCC 2998; above 100 µM in the assay on HCT-15; > 100 µM (inactive) with U-251; > 100 µM (inactive) in the assay with HOP-92; > 100 µM (inactive) in the assay on A498; > 100 µM (inactive) in the assay on COLO 205. Besides, the GI50 in the assay on K562, in the assay with KM12, in the assay on SF-539, in the assay with SNB-75, in the assay on HL-60 and in the assay on A549 was > 100 µM (inactive) each time. Further, the GI50 with NCI-H522 was > 100 µM (inactive).

On to `O=c1ncccn1C1OC(CO)C(O)C1O` (configuration not stated), for which the GI50 with HCC 2998 is > 100 µM (inactive); with HCT-15 it was above 100 µM; in the assay on U-251, > 100 µM (inactive); with HOP-92 it was > 100 µM (inactive); in the assay on A498, > 100 µM (inactive); in the assay on COLO 205, > 100 µM (inactive). The GI50 with K562, with KM12, in the assay on SNB-75, with OVCAR-5, in the assay on OVCAR-8 and with A549 was > 100 µM (inactive) in each case. Further, in the assay with NCI-H522, the GI50 is > 100 µM (inactive).

Turning to `CC(C)C(NC(=O)OC(C)(C)C)C(=O)N(C)C(Cc1ccccc1)C(=O)N(C)C(C(=O)N(C)C(C(=O)OCc1ccccc1)C(C)C)C(C)C` (configuration not stated) (Boc-V[NMeF][NMeV][NMeV]-OBn; configuration not given here), the GI50 with HCC 2998 is 44.2 µM (inactive); in the assay with SR it was 20.8 µM (inactive); in the assay on HCT-15 it was above 100 µM; in the assay on U-251, > 100 µM (inactive); in the assay with COLO 205, > 100 µM (inactive); with K562 it was > 100 µM (inactive). In addition, the GI50 in the assay on KM12 was > 100 µM (inactive); with SF-539 it was > 100 µM (inactive); in the assay on HL-60, > 100 µM (inactive); in the assay with OVCAR-8, > 100 µM (inactive); in the assay with A549, > 100 µM (inactive); in the assay on NCI-H522 it was 16.7 µM (inactive).
